≈ marks a conversion by molar mass, not a printed value. Calls of active or inactive are those of the source. No cut-off for these calls is given here. Peptide text beside a SMILES is read from it.
How the values were obtained:
[1] = Hemolytic activity in human Red blood cells assessed as hemolysis at 128 ug/ml incubated for 1 hrs by absorbance based microplate reader analysis relative to control; format: toxicity, cell-based, Erythrocyte; conditions: red blood cells (erythrocytes), at 128 µg/mL, read-out: Activity
[2] = test system: RAW264.7; test: Inhibition of LPS-stimulated NO production in mouse RAW264.7 cells incubated for 24 hrs by Griess reagent based analysis; format: functional, cell-based; conditions: dose 1-128 µg/ml
[3] = Antibacterial activity against Salmonella dublin CICC 21497 incubated overnight by standard microtiter dilution method; format: functional, Salmonella enterica subsp. enterica serovar Dublin; conditions: Salmonella enterica
[4] = test system: Staphylococcus aureus; test: Antibacterial activity against methicillin-resistant Staphylococcus aureus ATCC 43300 incubated overnight by standard microtiter dilution method; format: functional
[5] = test system: Salmonella typhimurium; test: Antibacterial activity against Salmonella typhimurium DT104 ATCC 700408 incubated overnight by standard microtiter dilution method; format: functional, Salmonella enterica subsp. enterica serovar Typhimurium; conditions: Salmonella enterica
[6] = test system: Candida albicans; test: Antifungal activity against Candida albicans ATCC 10231 incubated overnight by standard microtiter dilution method; format: functional
[7] = test system: Escherichia coli; test: Antibacterial activity against Escherichia coli O157:H7 CICC 21530 incubated overnight by standard microtiter dilution method; format: functional
[8] = test system: Salmonella typhimurium; test: Antibacterial activity against Salmonella typhimurium DT104 in the presence of KCl by MH broth based assay; format: functional, Salmonella enterica subsp. enterica serovar Typhimurium; conditions: Salmonella enterica
[9] = test system: Salmonella typhimurium; test: Antibacterial activity against Salmonella typhimurium DT104 in the presence of MgCl2 by MH broth based assay; format: functional, Salmonella enterica subsp. enterica serovar Typhimurium; conditions: Salmonella enterica
[10] = Antibacterial activity against Salmonella blockley CICC 21489 incubated overnight by standard microtiter dilution method; format: functional, Salmonella enterica subsp. enterica serovar Blockley; conditions: Salmonella enterica
[11] = test system: Enterococcus faecalis; test: Antibacterial activity against Enterococcus faecalis ATCC 29212 incubated overnight by standard microtiter dilution method; format: functional
[12] = Antibacterial activity against Salmonella enterica subsp. enterica serovar Choleraesuis CICC 21493 incubated overnight by standard microtiter dilution method; format: functional
[13] = test system: Salmonella typhimurium; test: Antibacterial activity against Salmonella typhimurium DT104 in the presence 25% inactivated mouse serum by MH broth based assay; format: functional, Salmonella enterica subsp. enterica serovar Typhimurium; conditions: Salmonella enterica
[14] = test system: Staphylococcus aureus; test: Antibacterial activity against Staphylococcus aureus ATCC 29213 incubated overnight by standard microtiter dilution method; format: functional
[15] = test system: Salmonella typhimurium; test: Antibacterial activity against Salmonella typhimurium DT104 in the presence of NaCl by MH broth based assay; format: functional, Salmonella enterica subsp. enterica serovar Typhimurium; conditions: Salmonella enterica
[16] = test system: Salmonella typhimurium; test: Antibacterial activity against Salmonella typhimurium DT104 in the presence of NH4Cl by MH broth based assay; format: functional, Salmonella enterica subsp. enterica serovar Typhimurium; conditions: Salmonella enterica
[17] = test system: Salmonella typhimurium; test: Antibacterial activity against Salmonella typhimurium CICC 21913 incubated overnight by standard microtiter dilution method; format: functional, Salmonella enterica subsp. enterica serovar Typhimurium; conditions: Salmonella enterica
[18] = test system: Salmonella typhimurium; test: Antibacterial activity against Salmonella typhimurium DT104 in the presence 50% inactivated mouse serum by MH broth based assay; format: functional, Salmonella enterica subsp. enterica serovar Typhimurium; conditions: Salmonella enterica
[19] = Antibacterial activity against Salmonella enterica subsp. enterica serovar Choleraesuis ATCC 13312 incubated overnight by standard microtiter dilution method; format: functional
[20] = test system: Salmonella paratyphi; test: Antibacterial activity against Salmonella paratyphi A CICC 21501 incubated overnight by standard microtiter dilution method; format: functional, Salmonella enterica subsp. enterica serovar Paratyphi A; conditions: Salmonella enterica
[21] = test system: Salmonella enteritidis; test: Antibacterial activity against Salmonella enteritidis CICC 21527 incubated overnight by standard microtiter dilution method; format: functional, Salmonella enterica subsp. enterica serovar Enteritidis; conditions: Salmonella enterica
[22] = Antibacterial activity against Salmonella wandsworth CICC 21504 incubated overnight by standard microtiter dilution method; format: functional, Salmonella enterica subsp. enterica serovar Wandsworth; conditions: Salmonella enterica
[23] = Antibacterial activity against Salmonella paratyphi C CICC 21512 incubated overnight by standard microtiter dilution method; format: functional, Salmonella enterica subsp. enterica serovar Paratyphi C; conditions: Salmonella enterica
[24] = test system: Cell membrane; test: Disruption of membrane integrity in Salmonella typhimurium DT104 assessed as increase in fluorescence intensity at 0.5 to 2 times of MIC incubated for 15 mins by PI staining based flow cytometric analysis; format: subcellular; conditions: Salmonella enterica subsp. enterica serovar Typhimurium
[25] = test system: Salmonella typhimurium; test: Antibacterial activity against Salmonella typhimurium CICC 21483 incubated overnight by standard microtiter dilution method; format: functional, Salmonella enterica subsp. enterica serovar Typhimurium; conditions: Salmonella enterica
[26] = test system: Staphylococcus epidermidis; test: Antibacterial activity against methicillin-resistant Staphylococcus epidermidis ATCC 12228 incubated overnight by standard microtiter dilution method; format: functional
[27] = test system: Erythrocyte; test: Hemolytic activity in human Red blood cells assessed as hemolysis incubated for 1 hrs by absorbance based microplate reader analysis; format: toxicity, cell-based
[28] = test system: Salmonella enterica subsp. enterica serovar Paratyphi B; test: Antibacterial activity against Salmonella paratyphi B CICC 21495 incubated overnight by standard microtiter dilution method; format: functional
[29] = test system: Salmonella typhimurium; test: Antibacterial activity against Salmonella typhimurium DT104 in the presence of CaCl2 by MH broth based assay; format: functional, Salmonella enterica subsp. enterica serovar Typhimurium; conditions: Salmonella enterica
[30] = test system: Salmonella typhimurium; test: Antibacterial activity against Salmonella typhimurium DT104 in the presence of FeCl3 by MH broth based assay; format: functional, Salmonella enterica subsp. enterica serovar Typhimurium; conditions: Salmonella enterica
[31] = test system: RAW264.7; test: Inhibition of LPS-stimulated IL-8 production in mouse RAW264.7 cells at 1 to 128 ug/ml incubated for 24 hrs by ELISA analysis; format: functional, cell-based; conditions: dose 1-128 µg/ml
[32] = test system: Lipopolysaccharide (LPS); test: Displacement of BODIPY-TR-cadaverine from Salmonella typhimurium LPS assessed as increase in fluorescence intensity by fluorescence spectrophotometric analysis; conditions: Salmonella enterica subsp. enterica serovar Typhimurium; dose 0.25-8 µg/ml
[33] = test system: RAW264.7; test: Inhibition of LPS-stimulated IL-1beta production in mouse RAW264.7 cells at 1 to 128 ug/ml incubated for 24 hrs by ELISA analysis; format: functional, cell-based; conditions: dose 1-128 µg/ml
[34] = test system: RAW264.7; test: Inhibition of LPS-stimulated TNF-alpha production in mouse RAW264.7 cells at 1 to 128 ug/ml incubated for 24 hrs by ELISA analysis; format: functional, cell-based; conditions: dose 1-128 µg/ml

Row | SMILES | hemolysis at 1 h, 128 ug/ml [1] [%] | inhibition [2] | MIC [3] [mg/L] | MIC [4] [mg/L] | MIC [5] [mg/L] | MIC [6] [mg/L] | MIC [7] [mg/L] | MIC [8] [mg/L] | MIC [9] [mg/L] | MIC [10] [mg/L] | MIC [11] [mg/L] | MIC [12] [mg/L] | MIC [13] [mg/L] | MIC [14] [mg/L] | MIC [15] [mg/L] | MIC [16] [mg/L] | MIC [17] [mg/L] | MIC [18] [mg/L] | MIC [19] [mg/L] | MIC [20] [mg/L] | other results
1 | CC(C)[C@H](NC(=O)CNC(=O)[C@H](CC(N)=O)NC(=O)CNC(=O)[C@H](Cc1ccc(O)cc1)NC(=O)[C@H](Cc1ccc(O)cc1)NC(=O)[C@@H](N)CCCCN)C(=O)N[C@@H](Cc1c[nH]cn1)C(=O)N[C@@H](CS)C(=O)N[C@H](C(=O)N[C@@H](CCCCN)C(=O)N[C@@H](CO)C(=O)NCC(=O)N[C@@H](CS)C(=O)N[C@@H](CO)C(=O)N[C@H](C(=O)N[C@@H](CC(N)=O)C(=O)N[C@@H](Cc1c[nH]c2ccccc12)C(N)=O)C(C)C)[C@@H](C)O (H-KYYGNGVHCTKSGCSVNW-NH2) | < 10 | Dose-Dependent Effect | 32 (≈ 16 µM) | > 128 | > 128 | 16 (≈ 7.99 µM) | 64 (≈ 32 µM) | 128 | 128 | 64 (≈ 32 µM) | > 128 | 128 (≈ 63.9 µM) | > 128 | > 128 | > 128 | 64 | > 128 | > 128 | 32 (≈ 16 µM) | 128 (≈ 63.9 µM) | MIC [21]: 64 mg/L (≈ 32 µM); MIC [22]: 64 mg/L (≈ 32 µM); MIC [23]: 32 mg/L (≈ 16 µM); Activity [24]: inactive; MIC [25]: 64 mg/L (≈ 32 µM); MIC [26]: 64 mg/L (≈ 32 µM); MHC [27]: > 128 µg/mL; MIC [28]: 32 mg/L (≈ 16 µM); MIC [29]: > 128 mg/L; MIC [30]: 64 mg/L; inhibition [31]: Active; Activity [32]: Dose-Dependent Effect; inhibition [33]: Active; inhibition [34]: Active
2 | CC(C)C[C@H](NC(=O)[C@H](CCCCN)NC(=O)[C@H](CS)NC(=O)CNC(=O)[C@H](CO)NC(=O)[C@H](CCCCN)NC(=O)[C@@H](NC(=O)[C@H](CS)NC(=O)[C@H](CCCCN)NC(=O)[C@@H](N)CC(C)C)[C@@H](C)O)C(N)=O (H-LKCTKSGCKL-NH2) | < 10 | Dose-Dependent Effect | > 128 | > 128 | > 128 | > 128 | > 128 | > 128 | > 128 | > 128 | > 128 | > 128 | > 128 | > 128 | > 128 | > 128 | > 128 | > 128 | > 128 | > 128 | MIC [21]: > 128 mg/L; MIC [22]: > 128 mg/L; MIC [23]: > 128 mg/L; MIC [25]: > 128 mg/L; MIC [26]: > 128 mg/L; MHC [27]: > 128 µg/mL; MIC [28]: > 128 mg/L; MIC [29]: > 128 mg/L; MIC [30]: > 128 mg/L; inhibition [31]: Active; Activity [32]: Dose-Dependent Effect; inhibition [33]: Active; inhibition [34]: Active
3 | CC(C)[C@H](N)C(=O)N[C@@H](CCCCN)C(=O)N[C@@H](CS)C(=O)N[C@H](C(=O)N[C@@H](CCCCN)C(=O)N[C@@H](CO)C(=O)NCC(=O)N[C@@H](CS)C(=O)N[C@@H](CCCCN)C(=O)N[C@H](C(N)=O)C(C)C)[C@@H](C)O (H-VKCTKSGCKV-NH2) | < 10 | Dose-Dependent Effect | > 128 | > 128 | > 128 | > 128 | > 128 | > 128 | > 128 | > 128 | 32 (≈ 30.4 µM) | > 128 | > 128 | > 128 | > 128 | > 128 | > 128 | > 128 | > 128 | > 128 | MIC [21]: > 128 mg/L; MIC [22]: > 128 mg/L; MIC [23]: > 128 mg/L; MIC [25]: > 128 mg/L; MIC [26]: > 128 mg/L; MHC [27]: > 128 µg/mL; MIC [28]: > 128 mg/L; MIC [29]: > 128 mg/L; MIC [30]: > 128 mg/L; inhibition [31]: Active; Activity [32]: Dose-Dependent Effect; inhibition [33]: Active; inhibition [34]: Active
4 | C[C@@H](O)[C@H](NC(=O)[C@H](CS)NC(=O)[C@H](CCCCN)NC(=O)[C@@H](N)Cc1c[nH]c2ccccc12)C(=O)N[C@@H](CCCCN)C(=O)N[C@@H](CO)C(=O)NCC(=O)N[C@@H](CS)C(=O)N[C@@H](CCCCN)C(=O)N[C@@H](Cc1c[nH]c2ccccc12)C(N)=O (H-WKCTKSGCKW-NH2) | < 10 | Dose-Dependent Effect | > 128 | > 128 | > 128 | 64 (≈ 52.2 µM) | 64 (≈ 52.2 µM) | > 128 | > 128 | > 128 | 128 (≈ 104 µM) | > 128 | > 128 | > 128 | > 128 | > 128 | > 128 | > 128 | 8 (≈ 6.53 µM) | 128 (≈ 104 µM) | MIC [21]: > 128 mg/L; MIC [22]: 64 mg/L (≈ 52.2 µM); MIC [23]: 64 mg/L (≈ 52.2 µM); MIC [25]: > 128 mg/L; MIC [26]: 128 mg/L (≈ 104 µM); MHC [27]: > 128 µg/mL; MIC [28]: 16 mg/L (≈ 13.1 µM); MIC [29]: > 128 mg/L; MIC [30]: > 128 mg/L; inhibition [31]: Active; Activity [32]: Dose-Dependent Effect; inhibition [33]: Active; inhibition [34]: Active
